“And” between values parts separate entries of the source, which are not always exact repeats. Equal values may be shown once. Read-outs that look alike come from different tables or passages of the source.
Experiments:
TRPV4 = conditions: read-out: Ki TRPV4; cited from earlier work
J774.1 cells [1] = assay: Quantitation of oxLDL endocytosis (DiI-oxLDL spectrofluorometry); assay type: cell-based, murine; conditions: for effect on oxLDL uptake by the cells (dose-response, Fig 4) / ED50: DiI-oxLDL 10 μg mL^-1, 24 h; for ED50: oxLDL internalization, NE non-effective; for effect of Ca2+ chelation on DiI-oxLDL internalized: BAPTA-AM 5–20 μM, EGTA 4 mM (S8 Fig)
CB2 = conditions: cited from earlier work
CB1 = conditions: cited from earlier work
GPR55 = conditions: cited from earlier work
LDL = system: LDL; parameters: method as in PMID 33123676; conditions: already described; cited from earlier work
J774.1 cells [2] = assay: Cellular toxicity, MTT reduction; conditions: 24 h; for effect on cell viability and metabolism (MTT): explored range 3–30 μM; for LD50: MTT viability curves
Method: Cell viability was determined by the mitochondrial-dependent reduction of 3-[4,5-dimethylthiazole-2-yl]-2,5-diphenyltetrazolium bromide (MTT, Merck KGaA) to formazan. […] A control condition with vehicle alone (0.2% DMSO) was also added to each experiment. The medium was replaced with DMEM containing MTT (0.1 mg mL^-1) and the cells were incubated at 37° C for 4 h. After removing the media, formazan crystals were dissolved in DMSO, and the absorbance was registered using the Varioskan plate reader at 560 nm. […] Therapeutic indexes (TI) were calculated as the ratios between the […].

TRPV1 = conditions: cited from earlier work
rat TRPV1 = system: rat TRPV1; parameters: method as in PMID 15615864; conditions: cited from earlier work
human TRPV1 = system: human TRPV1; parameters: method as in PMID 15615864; conditions: cited from earlier work
[3] = Fig 4, 0.28 µM, 24 h, replicates n=1-3
[4] = Fig 4, 1.39 µM, 24 h, replicates n=1-3
[5] = Fig 4, 2.79 µM, 24 h, replicates n=1-3
[6] = Fig 4, 8.37 µM, 24 h, replicates n=1-3
[7] = Fig 4, 13.95 µM, 24 h, replicates n=1-3
[8] = S2 Table, ref THC [1–5], CBD [3–6], AEA [2,3,5,8,9], AM251 [5,10–16], AM630 [14,15,17,18], ML184 [22–24], CID16020046 [25], read-out: Ki or IC50, GPR55
[9] = Fig 5 A-C, antagonist alone 5 µM, 24 h, replicates n=1-3
[10] = Fig 4, 0.32 µM, 24 h, replicates n=1-3
[11] = Fig 4, 1.59 µM, 24 h, replicates n=1-3
[12] = Fig 4, 3.18 µM, 24 h, replicates n=1-3
[13] = Fig 4, 12.72 µM, 24 h, replicates n=1-3

CC(C)C[C@H](NC(=O)c1cc2ccccc2s1)C(=O)N1CCN(C(=O)[C@H](CO)NS(=O)(=O)c2ccc(Cl)cc2Cl)CC1 [GSK1016790A, N-[(1S)-1-[[4-[(2S)-2-[[(2,4-dichlorophenyl)sulfonyl]amine]-3-hydroxy-1-oxopropyl]-1-piperazinyl]carbonyl]-3-methylbutyl]benzo [b]thiophene-2-carboxamide]
Ki (TRPV4): 0.005 µM | increase of DiI-oxLDL uptake (J774.1 cells [1]): ~ 30%

COc1cc(CNC(=O)CCCCC=CC(C)C)ccc1O [Capsaicin, 8-methyl-N-vanillyl-6-nonenamide]
increase of DiI-oxLDL uptake (J774.1 cells [1]; agonist 50 μM, 6 h, absence of extracts): ~ 15%

Cc1c(C(=O)NN2CCCCC2)nn(-c2ccc(Cl)cc2Cl)c1-c1ccc(I)cc1 [AM251, 1-(2,4-Dichlorophenyl)-5-(4-iodophenyl)-4-methyl-N-1-piperidinyl-1H-pyrazole-3-carboxamide]
Ki (CB2): 0.124 µM

Cc1cccc(N2CCN(C(=O)c3cc(S(=O)(=O)N(C)C)ccc3N3CCCC3)CC2)c1C [ML184, 3-[[4-(2,3-dimethylphenyl)-1-piperazinyl]carbonyl]-N,N-dimethyl-4-(1-pyrrolidinyl) benzenesulfonamide]
Ki (CB1): > 32 µM | Ki (GPR55; read-out: Ki GPR55): 0.26 µM | Ki (CB2): > 32 µM | DiI-oxLDL (J774.1 cells [1]): 0.641 µg/mL and 0.711 µg/mL and 0.735 µg/mL | increase of DiI-oxLDL uptake (J774.1 cells [1]): ~ 15% | µg DiI-oxLDL/mg protein (J774.1 cells [1]): 1.308 µg DiI-oxLDL/mg protein and 1.400 µg DiI-oxLDL/mg protein and 1.366 µg DiI-oxLDL/mg protein

CCCCCc1cc2c(c(O)c1C(=O)O)C1C=C(C)CCC1C(C)(C)O2 (stereo not drawn) [THCA, Δ^9-tetrahydrocannabinolic acid]
Ki (CB1): 1.29 µM | protection of LDL from oxidation (LDL): lack of protection | effect on cell viability and metabolism (MTT) (J774.1 cells [2]): no effect | Ki (CB2): 1.65 µM | effect on oxLDL uptake by the cells (dose-response, Fig 4) (J774.1 cells [1]): inhibited oxLDL endocytosis | DiI-oxLDL (J774.1 cells [1]; [3]): 5.657 µg/mL and 5.8008 µg/mL and 5.782 µg/mL | µg DiI-oxLDL/mg protein (J774.1 cells [1]; [3]): 10.7513 µg DiI-oxLDL/mg protein and 10.8025 µg DiI-oxLDL/mg protein and 11.0708 µg DiI-oxLDL/mg protein | DiI-oxLDL (J774.1 cells [1]; [4]): 5.437 µg/mL and 5.452 µg/mL and 5.506 µg/mL | µg DiI-oxLDL/mg protein (J774.1 cells [1]; [4]): 9.919 µg DiI-oxLDL/mg protein and 9.956 µg DiI-oxLDL/mg protein and 10.007 µg DiI-oxLDL/mg protein | DiI-oxLDL (J774.1 cells [1]; [5]): 5.849 µg/mL and 5.071 µg/mL and 5.133 µg/mL | µg DiI-oxLDL/mg protein (J774.1 cells [1]; [5]): 9.9098 µg DiI-oxLDL/mg protein and 9.139 µg DiI-oxLDL/mg protein and 9.494 µg DiI-oxLDL/mg protein | DiI-oxLDL (J774.1 cells [1]; [6]): 3.515 µg/mL and 3.542 µg/mL and 3.49 µg/mL | µg DiI-oxLDL/mg protein (J774.1 cells [1]; [6]): 6.46 µg DiI-oxLDL/mg protein and 6.3952 µg DiI-oxLDL/mg protein and 6.189 µg DiI-oxLDL/mg protein | DiI-oxLDL (J774.1 cells [1]; [7]): 2.689 µg/mL and 2.817 µg/mL and 2.8328 µg/mL | µg DiI-oxLDL/mg protein (J774.1 cells [1]; [7]): 4.86 µg DiI-oxLDL/mg protein and 5.27 µg DiI-oxLDL/mg protein and 5.206 µg DiI-oxLDL/mg protein | ED50 (J774.1 cells [1]): 12 ± 1 µM

CCCCC/C=C\C/C=C\C/C=C\C/C=C\CCCC(=O)NCCO [AEA, N-arachidonoylethanolamine]
Ki (CB1): 0.031 to 0.252 µM | Ki (TRPV1): 0.27 µM | effect on oxLDL uptake by the cells (dose-response, Fig 4) (J774.1 cells [1]): unable to prevent the uptake of oxLDL

COc1ccc(C(=O)c2c(C)n(CCN3CCOCC3)c3cc(I)ccc23)cc1 [AM630]
Ki (GPR55; [8]): 1.5 µM | Ki (CB2; read-out: Ki CB2): 0.031 µM | effect of the antagonist on the inhibition of oxLDL uptake by the extracts (J774.1 cells [1]): unable to counteract the inhibitory effect | DiI-oxLDL (J774.1 cells [1]; [9]): 5.170 µg/mL and 6.331 µg/mL and 3.777 µg/mL | µg DiI-oxLDL/mg protein (J774.1 cells [1]; [9]): 10.904 µg DiI-oxLDL/mg protein and 13.538 µg DiI-oxLDL/mg protein and 10.952 µg DiI-oxLDL/mg protein

O=C(O)CN(CCOCCOCCN(CC(=O)O)CC(=O)O)CC(=O)O [EGTA]
effect of Ca2+ chelation on DiI-oxLDL internalized (J774.1 cells [1]; 6 h): negligible

CC(C)(C)c1ccc(/C=C/C(=O)Nc2ccc3c(c2)OCCO3)cc1 [AMG9810, 2E-N-(2,3-dihydro-1,4-benzodioxin-6-yl)-3-[4-(1,1-dimethylethyl)phenyl]-2-propenamide]
IC50 (rat TRPV1): 0.0856 µM | effect of the antagonist on DiI-oxLDL uptake (J774.1 cells [1]): significant inhibition of DiI-oxLDL uptake | IC50 (human TRPV1): 0.0245 µM

Cc1c(C(=O)Nc2cccc(C(F)(F)F)c2)cc(-c2ccccc2)n1CCCN1CCOCC1 [HC067047, 2-methyl-1-(3-morpholin-4-ylpropyl)-5-phenyl-N -[3-(trifluoromethyl)phenyl]pyrrole-3-carboxamide]
Ki (TRPV4): 0.017 to 0.133 µM | effect of the antagonist on DiI-oxLDL uptake (J774.1 cells [1]): did not affect DiI-oxLDL uptake

C=C(C)[C@@H]1CCC(C)=C[C@H]1c1c(O)cc(CCCCC)cc1O [CBD, cannabidiol]
protection of LDL from oxidation (LDL): lack of protection | LD50 (J774.1 cells [2]): 23 ± 1 µM | Ki (GPR55; [8]): 0.354 µM | effect on oxLDL uptake by the cells (dose-response, Fig 4) (J774.1 cells [1]): inhibited oxLDL endocytosis | ED50 (J774.1 cells [1]): 25 ± 5 µM

CCCCCc1cc(O)c2c(c1)OC(C)(C)[C@@H]1CCC(C)=C[C@@H]21 [THC, Δ^9-tetrahydrocannabinol]
protection of LDL from oxidation (LDL): protection | LD50 (J774.1 cells [2]): 20 ± 1 µM | Ki (GPR55; [8]): 0.008 to 0.0089 µM | DiI-oxLDL (J774.1 cells [1]): 4.013 µg/mL and 4.084 µg/mL and 4.342 µg/mL | µg DiI-oxLDL/mg protein (J774.1 cells [1]): 10.0784 µg DiI-oxLDL/mg protein and 9.298 µg DiI-oxLDL/mg protein and 9.028 µg DiI-oxLDL/mg protein | effect on oxLDL uptake by the cells (dose-response, Fig 4) (J774.1 cells [1]): inhibited oxLDL endocytosis | DiI-oxLDL (J774.1 cells [1]; [10]): 5.502 µg/mL and 5.314 µg/mL and 5.656 µg/mL | µg DiI-oxLDL/mg protein (J774.1 cells [1]; [10]): 13.3989 µg DiI-oxLDL/mg protein and 14.1131 µg DiI-oxLDL/mg protein and 13.7901 µg DiI-oxLDL/mg protein | DiI-oxLDL (J774.1 cells [1]; [11]): 5.307 µg/mL and 5.178 µg/mL and 5.296 µg/mL | µg DiI-oxLDL/mg protein (J774.1 cells [1]; [11]): 12.9859 µg DiI-oxLDL/mg protein and 12.4983 µg DiI-oxLDL/mg protein and 12.6611 µg DiI-oxLDL/mg protein | DiI-oxLDL (J774.1 cells [1]; [12]): 4.772 µg/mL and 4.841 µg/mL and 4.891 µg/mL | µg DiI-oxLDL/mg protein (J774.1 cells [1]; [12]): 12.1912 µg DiI-oxLDL/mg protein and 12.4565 µg DiI-oxLDL/mg protein and 12.6501 µg DiI-oxLDL/mg protein | DiI-oxLDL (J774.1 cells [1]; [13]): 2.336 µg/mL and 2.309 µg/mL and 2.423 µg/mL | µg DiI-oxLDL/mg protein (J774.1 cells [1]; [13]): 6.7266 µg DiI-oxLDL/mg protein and 6.397 µg DiI-oxLDL/mg protein and 6.486 µg DiI-oxLDL/mg protein | ED50 (J774.1 cells [1]): 11 ± 1 µM

CC(=O)OCOC(=O)CN(CC(=O)OCOC(C)=O)c1ccccc1OCCOc1ccccc1N(CC(=O)OCOC(C)=O)CC(=O)OCOC(C)=O [BAPTA-2AM]
effect of Ca2+ chelation on DiI-oxLDL internalized (J774.1 cells [1]; 6 h): very considerable impact

Cc1ccc(-c2n[nH]c3c2C(c2cccc(O)c2)N(c2ccc(C(=O)O)cc2)C3=O)cc1 (stereo not drawn) [CID16020046, 4-[4,6-dihydro-4-(3-hydroxyphenyl)-3-(4-methylphenyl)-6-oxopyrrolo[3,4-c]pyrazol-5(1H)-yl]benzoic acid]
effect of the antagonist on DiI-oxLDL uptake (J774.1 cells [1]): did not affect DiI-oxLDL uptake

C=C(C)[C@@H]1CCC(C)=C[C@H]1c1c(O)cc(CCCCC)c(C(=O)O)c1O [CBDA, cannabidiolic acid]
Ki (CB1): 0.626 µM | protection of LDL from oxidation (LDL): lack of protection | LD50 (J774.1 cells [2]): > 40 µM | effect on cell viability and metabolism (MTT) (J774.1 cells [2]): no effect | Ki (CB2): 0.813 µM | effect on oxLDL uptake by the cells (dose-response, Fig 4) (J774.1 cells [1]): inhibited oxLDL endocytosis | ED50 (J774.1 cells [1]): 18 ± 3 µM

Reference: paper PMC11661628, “Cannabis sativa extracts inhibit LDL oxidation and the formation of foam cells in vitro, acting as potential multi-step inhibitors of atherosclerosis development” (PLOS ONE, 2024)
